Assay results as given in US10723706B2, “Perk inhibitors and uses thereof in treating diseases associated with aggregation-prone proteins” (Ramot at Tel-Aviv University Ltd., priority 2016, dated 2020).
Entries after “also recorded” stand apart in the source; their conditions may differ.

System: R6/2 transgenic mice
Assay: Combined motor phenotype (ledge, clasping, gait, kyphosis) in R6/2 mice
Assay type: in vivo, mouse
Text: Hind-limb clasping behavior was scored on a scale from 0 to 3: 0=normal; 1=clasps hind limbs within 30 seconds of being suspended in the air; 2=clasps hind limbs within 5 seconds but recovers quickly when released after 30 seconds; 3=clasps hind limbs within 5 seconds and has difficulty recovering when released after 30 seconds.
The ledge test is a direct measure of coordination. Mice were lifted from the cage and placed on the cage's ledge. Mice will typically walk along the ledge and attempt to descend back into the cage. Walking along the ledge without losing its balance is assigned a score of 0. If the mouse loses its footing while walking along the ledge, it receives a score of 1. […] If it falls off the ledge, or nearly so, while walking or attempting to lower itself, or shakes and refuses to move at all despite encouragement, it receives a score of 3.
Gait is a measure of coordination and muscle function. […]
In parallel to the Rotarod analysis motor function and disease severity were evaluated using a simple composite phenotype that includes the combined analysis of hind limb clasping, ledge walk, gait and kyphosis [Guyenet et al., J Vis Exp 2010, (39):1787]. This test has the ability to effectively discriminate between affected and non-affected individuals, while also quantifying the temporal progression of neurodegenerative disease phenotypes such as HD.

Q: Which “combined phenotype score of TG mice versus untreated TG” value (R6/2 TG mice, from week 6 after pump implantation, p<0.05, listed as MK-28) does the source give for `CN(/N=C\c1ccc(O)c(O)c1)c1nc(-c2ccccc2)cc(-c2ccccc2)n1` [Compound 3, 2-{N-methyl-N′-(3,4-dihydroxybenzylidene)hydrazinyl}-4,6-diphenylpyrimidine] here?
A: Its value is “lower scores; also recorded: significant improvement”.

Q: And the “combined phenotype of WT mice” value (WT mice, p>0.05)?
A: The value was “no detrimental effect”.
